Patent publication US20250282723A1, “AMYLOID TARGETING AGENTS AND METHODS OF USING THE SAME” (The Regents of the University of California, priority 2021, published 2025)
“And” between values parts separate entries of the source, which are not always exact repeats. Equal entries are not always repeated.

Columns and labels:
aggregated αS [1] = biological target: T1, aggregated αS (Homo sapiens, UniProt P37840); assay: Estimation of binding constant (Kd) to aggregated αS; settings: probes of FIG. 14; aggregated αS 5 μM, increasing concentration of probe, 5% DMSO in nanopure water
T1 construct: made in house; host or cells: E. coli BL21 (plasmid pET5α aSynWT)
Description: (§1) Expression and purification of recombinant α-synuclein was followed as reported previously.^32 Briefly, α-synuclein was purified from BL21 E. coli as described: A starter culture of transformed bacteria (pET5α aSynWT) (LB broth with ampicillin [final concentration: 100 μg/mL]) was incubated overnight. Following incubation, 25 mL of the started culture was added to a 500 mL mixture of LB broth and ampicillin. Protein expression was induced by addition of IPTG [0.119 g/500 mL] when an OD600 between 0.5-0.8 was achieved. After 4 h, flasks were centrifuged (5,000×g for 20 min) and the supernatant was removed. The pellets were then re-suspended in 20 mM Tris, 25 mM NaCl, 1 mM EDTA, pH 8.0, transferred into a flask, boiled for 1-2 minutes in a microwave, and boiled in a water bath (90° C.) for 30 minutes. Samples were then centrifuged (18,000×g for 30 min) and the supernatant was collected and filtered through a 0.2 μm filter. α-synuclein protein was further purified using 2×5 ml HiTrapQ HP anion exchange columns (GE, #17-1153-01) followed by Size Exclusion Column (Superdex 200, #28-9893-35). Pure α-synuclein determined by Coomassie and western blot were lyophilized and stored at −80° C. until use.
(§2) Aggregation of purified α-synuclein was followed as reported previously.^33 The lyophilized powder was dissolved to a final concentration of 100 μM in sodium phosphate buffer (50 mM, pH 7.4) with 0.1 mM EDTA and 0.02% sodium azide (w/v) and was aggregated at 37° C. with shaking at 500 rpm for 3 weeks. Fibrillization was confirmed by SDS-PAGE gel and standard ThT assay.
Aggregated Aβ(1-42) or αS at a final concentration of 5 μM (based on the molecular weight of the monomer) was mixed with an increasing concentration of each probe in 5% DMSO in nanopure water. Kd's were calculated as previously described.^34 The measurements for each probe were repeated in technical triplicates and the averages are shown with standard deviations. Kd's for probes 1-3 with aggregated Aβ(1-42) have been reported previously.^31

aggregated αS [2] = biological target: T1, aggregated αS; assay: Fluorescence emission and fluorescence enhancement of probes bound versus unbound to aggregated αS; format: binding; settings: probes of FIG. 14; for Emmax (with αS) / FI with αS: aggregated αS 5 μM, probe 4 μM; for Emmax (with αS): 5% DMSO in nanopure water; for FI with αS: fold increase of fluorescence, bound vs unbound; for FI αS/Aβ: selectivity of fluorescence response to αS fibrils over Aβ fibrils
Description: as §1, §2
(§3) Aggregated αS or Aβ(1-42) at a final concentration of 5 μM (based on the molecular weight of monomer) was mixed with each fluorescent probe at a final concentration of 4 μM in 5% DMSO in nanopure water. The solution (80 μL total volume) was transferred to a black opaque 96 well plate and the fluorescence excitation and emission were read using a microplate reader. For emission fluorescence enhancement, the relative fluorescence enhancement of the bound versus unbound state was estimated by comparing the fluorescence intensity at λmax of the amyloid-bound state.

[3] = Fluorescence excitation and emission spectra of free (unbound) probes in aqueous solution; format: physicochemical; settings: for Em (λmax) (Free) / Ex (λmax) (Free): free probe in aqueous solution; for fluorescence intensity of the free probe in aqueous solution compared to ARCAM (1): free probes in aqueous solution, FIG. 2; for Emmax (Free): probes of FIG. 14, free
Description: (§4) Estimation of fluorescence enhancement of probes when bound versus unbound to aggregated Aβ (1-42) peptides. Aggregated Aβ (1-42) at a final concentration of 5 μM (based on the molecular weight of monomer) was mixed with each fluorescent probe at a final concentration of 4 μM in 5% DMSO in nanopure water. The solution (80 μL) was transferred to a black opaque 96 well plate and the fluorescence was read using a microplate reader. For all probes, the relative fluorescence enhancement of the bound versus unbound state was estimated by comparing the intensity at λmax of the amyloid-bound state.
as §3

[4] = biological target: T2, aggregated Aβ (1-42) peptides (Homo sapiens, UniProt P05067); assay: Fluorescence excitation/emission and fluorescence enhancement of probes bound versus unbound to aggregated Aβ (1-42) peptides; format: binding; settings: probe 4 μM; for Em (λmax) (with Aβ) / Ex (λmax) (with Aβ): aggregated Aβ (1-42) 5 μM; for Em (λmax) (with Aβ) / Ex (λmax) (with Aβ) / Fold Increase with Aβ / Emmax (with Aβ): 5% DMSO in nanopure water; for Fold Increase with Aβ: fluorescence intensity with aggregated Aβ (1-42) 5 μM vs probe alone, at λmax of the amyloid-bound state; for Emmax (with Aβ) / FI with Aβ: probes of FIG. 14, aggregated Aβ(1-42) 5 μM; for FI with Aβ: fold increase of fluorescence, bound vs unbound
T2 construct: Synthetic Aβ (1-42) peptide was purchased from Biopeptide, Co LLC; purchased Biopeptide, Co LLC (San Diego, California); host or cells: chemical synthesis
Description: Preparation of aggregated Aβ (1-42) peptides. Synthetic Aβ (1-42) peptide was purchased from Biopeptide, Co LLC (San Diego, California). Aggregated Aβ (1-42) was prepared as previously described.^26 Briefly, Aβ (1-42) was dissolved in 100% 1,1,1,3,3,3,-hexafluoro-2-propanol (HFIP) to a concentration of 1 mM and put on a shaker at room temperature (RT) for 24 hours. The solution was then diluted in cold nanopure water (2:1 H2O: HFIP). Aliquoted fractions were lyophilized for 3 days before dissolving in nanopure water to a concentration of 100 μM. Aggregated Aβ solutions were incubated and shaken at 37° C. for 3 days before use. The formation of soluble aggregates (67% fibrils as a mixture with 13% oligomers and 20% monomer) was confirmed using a standard thioflavin T (ThT) assay and by Sodium Dodecyl Sulphate-Polyacrylamide Gel Electrophoresis (SDS-PAGE) gel analysis (FIG. 11 and FIG. 12).
as §4
Synthetic Aβ (1-42) peptide was purchased from Biopeptide, Co LLC (San Diego, California). Aggregated Aβ (1-42) was prepared as previously described.^32 Briefly, monomeric Aβ (1-42) was dissolved in 100% 1,1,1,3,3,3,-hexafluoro-2-propanol (HFIP) to a final concentration of 1 mM and dissolved on a shaker at RT for 24 hours. This solution was then diluted with cold nanopure water (2:1 H2O:HFIP) and aliquoted into fractions. These samples were then lyophilized for 3 days before dissolving in nanopure water to a final concentration of 100 μM. AD solutions were aggregated by incubating and shaking at 37° C. for 3 days before use. The formation of soluble aggregates was confirmed using a standard Thioflavin T (ThT) assay and by SDS-PAGE gel analysis.^1
as §3

T2 sequence (P05067 672-713): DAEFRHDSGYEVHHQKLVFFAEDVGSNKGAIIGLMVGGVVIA

SMILES	Kd (aggregated αS [1]) [µM]	Emmax (with αS) (aggregated αS [2]) [nm]	FI with αS (aggregated αS [2])	FI αS/Aβ (aggregated αS [2])	Em (λmax) (Free) [3] [nm]	Ex (λmax) (Free) [3] [nm]	fluorescence intensity of the free probe in aqueous solution compared to ARCAM (1) [3]	Emmax (Free) [3] [nm]	Em (λmax) (with Aβ) [4] [nm]	Ex (λmax) (with Aβ) [4] [nm]	Fold Increase with Aβ [4]	Emmax (with Aβ) [4] [nm]	FI with Aβ [4]	Fold Increase with Aβ ([4]; listed as ARCAM (1)) [fold]
CCC1CCCCN1c1ccc2cc(/C=C(\C#N)C(=O)NCCOCCOCCOC)ccc2c1 (racemic) [Compound 5, (E)-2-cyano-3-(6-(2-ethylpiperidin-1-yl)naphthalen-2-yl)-N-(2-(2-(2-methoxyethoxy)ethoxy)ethyl)acrylamide]	5.8 ± 1.8	534	4.6 ± 0.7	3.8	575 ± 6	445 ± 1	lower but similar in magnitude to ARCAM (1)	575	567 ± 5	443 ± 5	1.2 fold and 1.2 ± 0.1 fold	567	1.2 ± 0.1	–
COCCOCCOCCNC(=O)/C(C#N)=C/c1ccc2cc(N3CCCCC3C)ccc2c1 (racemic) [Compound 4, (E)-2-cyano-N-(2-(2-(2-methoxyethoxy)ethoxy)ethyl)-3-(6-(2-methylpiperidin-1-yl)naphthalen-2-yl)acrylamide]	4.5 ± 1.6	531	3.8 ± 0.4	2.0	583 ± 1	431 ± 4	lower but similar in magnitude to ARCAM (1)	583	559 ± 8	439 ± 3	1.9 fold and 1.9 ± 0.5 fold	559	1.9 ± 0.5	–
COCCOCCOCCNC(=O)C(C#N)=Cc1ccc2cc(N3CCCCC3)ccc2c1 (mixture of isomers) [Compound 1]	3.9 ± 3.9	539	3.0 ± 0.5	1.4	590 ± 4	409 ± 11	–	590	560 ± 10	421 ± 4	2.1 ± 0.7 fold	560	2.1 ± 0.7	2.1
